# Measured values: patent US10232047B2, “Topical oil composition for the treatment of fungal infections” (VYOME BIOSCIENCES PVT LTD., priority 2011, dated 2019)
# Experiments:
# M. furfur (MTCC 1374) = test: Lipid assimilation in vitro assay: growth of M. furfur on Sabouraud Dextrose agar supplemented with fatty acids/esters or oils; type: cell-based, Malassezia furfur; conditions: up to 6 days
# Excerpt: (§1) Malassezia species are lipophilic unipolar yeasts recognized as commensals of skin that may be pathogenic under certain conditions (Indian Journal of Medical Microbiology, (2004) 22 (3):179-181). To compare lipid requirements of the fungus most closely associated with dandruff/seborrheic dermatitis, the best studied Malassezia species is M. furfur. Lipid assimilation in vitro assay was designed to investigate lipid effect on growth of M. furfur (MTCC 1374).
# Method: Briefly, Sabouraud Dextrose containing low-melt agar was melted, cooled to 38° C. Fatty acids/esters constituents eg, capric acid, caprylic acid, linoleic acid, oleic acid, lauric acid, palmitic acid, ethyl oleate, isopropyl myristate and oils containing fatty acid/esters eg, coconut oil, mustard oil etc., were added to study the growth of the fungus (Kaw Bing CHUA, et al Malaysian J Pathol (2005) 27(2): 99). After solidification, agar plates were streaked with M. furfur innoculum adjusted to appropriate cfu/ml, aseptically. Positive control with 2% olive oil and negative control without fatty substance were also maintained.
# as §1, with “lipophilic,” for “lipophilic”, “conditions.” for “conditions (Indian Journal of Medical Microbiology, (2004) 22 (3):179-181).”, “A lipid” for “Lipid”, “effect <C-11 fatty acid or their esters” for “effect”
# Briefly, Sabouraud Dextrose containing low-melt agar was melted and cooled to 38° C. Fatty acids/esters constituents, e.g., caprylic acid, capric acid and Monocaprylate of propylene glycol, were added in 2% concentration to study the growth of the fungus. After solidification, agar plates were streaked with M. furfur innoculum adjusted to appropriate cfu/ml, aseptically. Positive control with 2% olive oil and negative control without fatty substance were also maintained.
# A lipid assimilation in vitro assay was designed to investigate lipid effect >C-10 fatty acid or their esters on growth of M. furfur (MTCC 1374). Sabouraud Dextrose containing low-melt agar was melted and cooled to 38° C. Fatty acids/esters constituents, e.g. fatty acids or esters, such as lauric acid, palmitic acid, myristic acid, oleic acid, linoleic acid, isopropyl myristate, ethyl oleate, mustard oils, coconut oil were added at different concentration to study the growth of the fungus. Positive control with 2% olive oil and negative control without fatty substance were also maintained. After solidification, agar plates were streaked with M. furfur innoculum adjusted to appropriate cfu/ml, aseptically.
# M. obtusa = test: MIC of oil compositions against M. obtusa; type: cell-based; design: key: “+” indicates growth of fungus; “−” indicates no growth of fungus
# [1] = tested on: Malassezia furfur (MTCC 1374); test: MIC by agar dilution method in Leeming Notman Medium; type: cell-based; design: key: “+” indicates growth of fungus; “−” indicates no growth of fungus; conditions: M. furfur
# Experimental: The Minimum Inhibitory Concentration (MIC) is considered as an index for indicating Anti-fungal efficacy. Therefore lower the value of MIC of the composition, the better is its anti-fungal efficacy.
# Method: The in vitro activities of some of the oil compositions containing piroctone olamine against Malassezia furfur (MTCC 1374) were determined by agar dilution methods (Jan Faergemann, et al Acta Derm Venereol, (2006), 86:312; Irith Wiegand, et al Nature Protocols (2008), 3:163) Appropriate dilutions of solubilized antifungal compositions were added to molten Leeming Notman Medium. Once the plates were set, M. furfur innoculum adjusted to appropriate cfu/ml was streaked on the agar plates and incubated for 6 days. […] The MIC is defined as as the lowest concentration of antifungal agents that inhibits visible growth of fungus.
# Method: The in vitro activities of some of the oil compositions containing ketoconazole against Malassezia furfur (MTCC 1374) were determined by agar dilution methods. Appropriate dilutions of antifungal compositions were added to molten Leeming Notman Medium. Once the plates were set, M. furfur innoculum adjusted to appropriate cfu/ml was streaked on the agar plates and incubated for 6 days. […] The MIC is defined as the lowest tested dilution of antifungal active that yields no growth.
# B) Study of MIC of Oil Compositions Devoid of C-11 or Greater Fatty Acids/Esters Containing Antifungal Agent Piroctone Olamine Against M. furfur Under in vitro Conditions.
# [2] = Example 6B, different concentration (olive oil 2%)
# [3] = Table 6, compositions of Table 5
# [4] = piroctone olamine oil compositions, incubated 6 days
compound,measurement,setting,value
CCCCCCCC/C=C\CCCCCCCC(=O)OCC [ethyl oleate],Growth of M. furfur with the substance as nutrient in culture media,M. furfur (MTCC 1374); Example 3,confluent growth
same,Growth of M. furfur with the substance as nutrient in culture media,M. furfur (MTCC 1374); [2],confluent growth
CCCCC/C=C\C/C=C\CCCCCCCC(=O)O [linoleic acid],Growth of M. furfur with the substance as nutrient in culture media,M. furfur (MTCC 1374); Example 3,confluent growth
same,Growth of M. furfur with the substance as nutrient in culture media,M. furfur (MTCC 1374); [2],confluent growth
CCCCCCCC(=O)O [caprylic acid],Growth of M. furfur with the substance as nutrient in culture media,M. furfur (MTCC 1374); Example 3,no growth
same,Growth of M. furfur with the substance as nutrient in culture media,"M. furfur (MTCC 1374); Example 6A, 2% concentration",no growth
CCCCCCCCCCCCCC(=O)O [myristic acid],Growth of M. furfur with the substance as nutrient in culture media,M. furfur (MTCC 1374); [2],confluent growth
CCCCCCCCCCCC(=O)O [lauric acid],Growth of M. furfur with the substance as nutrient in culture media,M. furfur (MTCC 1374); Example 3,confluent growth
same,Growth of M. furfur with the substance as nutrient in culture media,M. furfur (MTCC 1374); [2],confluent growth
CCCCCCCC/C=C\CCCCCCCC(=O)O [oleic acid],Growth of M. furfur with the substance as nutrient in culture media,M. furfur (MTCC 1374); Example 3,confluent growth
same,Growth of M. furfur with the substance as nutrient in culture media,M. furfur (MTCC 1374); [2],confluent growth
CCCCCCCCCC(=O)O [capric acid],Growth of M. furfur with the substance as nutrient in culture media,M. furfur (MTCC 1374); Example 3,no growth
same,Growth of M. furfur with the substance as nutrient in culture media,"M. furfur (MTCC 1374); Example 6A, 2% concentration",no growth
CCCCCCCCCCCCCCCC(=O)O [palmitic acid],Growth of M. furfur with the substance as nutrient in culture media,M. furfur (MTCC 1374); Example 3,confluent growth
same,Growth of M. furfur with the substance as nutrient in culture media,M. furfur (MTCC 1374); [2],confluent growth
"Cc1cc(CC(C)CC(C)(C)C)n(O)c(=O)c1.NCCO (stereo not drawn) [PO in DMSO, Piroctone olamine]",Growth of fungus at concentration 4 μg/ml (MIC determination),M. obtusa; 4 μg/ml,+
same,Growth of fungus at concentration 8 μg/ml (MIC determination),M. obtusa; 8 μg/ml,+
same,Growth of fungus at concentration 16 μg/ml (MIC determination),M. obtusa; 16 μg/ml,+
same,Growth of fungus at concentration 32 μg/ml (MIC determination),M. obtusa; 32 μg/ml,−
same,Growth of fungus at concentration 64 μg/ml (MIC determination),M. obtusa; 64 μg/ml,−
same,Growth of fungus at concentration 8 μg/ml (MIC determination),[1]; [3],+
same,Growth of fungus at concentration 8 μg/ml (MIC determination),[1]; [4],+
same,Growth of fungus at concentration 16 μg/ml (MIC determination),[1]; [3],+
same,Growth of fungus at concentration 16 μg/ml (MIC determination),[1]; [4],+
same,Growth of fungus at concentration 32 μg/ml (MIC determination),[1]; [3],−
same,Growth of fungus at concentration 32 μg/ml (MIC determination),[1]; [4],−
same,Growth of fungus at concentration 64 μg/ml (MIC determination),[1]; [3],−
same,Growth of fungus at concentration 64 μg/ml (MIC determination),[1]; [4],−
"CC(=O)N1CCN(c2ccc(OCC3COC(Cn4ccnc4)(c4ccc(Cl)cc4Cl)O3)cc2)CC1 (stereo not drawn) [Keto in DMSO, Ketoconazole]",Growth of fungus at concentration 0.0625 μg/ml (MIC determination),"[1]; 0.0625 μg/ml, ketoconazole oil compositions, incubated 6 days",+
same,Growth of fungus at concentration 0.125 μg/ml (MIC determination),"[1]; 0.125 μg/ml, ketoconazole oil compositions, incubated 6 days",+
same,Growth of fungus at concentration 0.25 μg/ml (MIC determination),"[1]; 0.25 μg/ml, ketoconazole oil compositions, incubated 6 days",−
same,Growth of fungus at concentration 0.5 μg/ml (MIC determination),"[1]; 0.5 μg/ml, ketoconazole oil compositions, incubated 6 days",−
same,Growth of fungus at concentration 1 μg/ml (MIC determination),"[1]; 1 μg/ml, ketoconazole oil compositions, incubated 6 days",−
same,Growth of fungus at concentration 2 μg/ml (MIC determination),"[1]; 2 μg/ml, ketoconazole oil compositions, incubated 6 days",−
CCCCCCCCCCCCCC(=O)OC(C)C [isopropyl myristate],Growth of M. furfur with the substance as nutrient in culture media,M. furfur (MTCC 1374); Example 3,confluent growth
same,Growth of M. furfur with the substance as nutrient in culture media,M. furfur (MTCC 1374); [2],confluent growth
